Activity calls are given as the source filed them. No cut-off for these calls is given here.
Tests used:
[1] = (§1) Photo selectivity index, ratio of CC50 for darktoxicity in human Bcap37 cells assessed as cell viability preincubated for 24 hrs followed by incubation under dark condition for 24 hrs by MTT assay to IC50 for phototoxicity in human Bcap37 cells assessed as cell viability preincubated for 24 hrs followed by white light irradiation at 20 mW/cm2 for 10 mins and measured after 24 hrs by MTT assay; type: toxicity, cell-based; conditions: read-out: Ratio CC50/IC50
MDA-MB-231 [2] = experiment: Upregulation of Acsl4 mRNA expression in human MDA-MB-231 cells at 10 nM preincubated for 24 hrs followed by […] white light irradiation for 10 mins and measured after 12 hrs by qRT-PCR analysis; type: functional, cell-based; conditions: time 2170.0 min
[3] = Phototoxicity in mouse 4T1 cells assessed as cell viability preincubated for 24 hrs followed by white light irradiation at 20 mW/cm2 for 10 mins and measured after 24 hrs by MTT assay; type: functional, cell-based; conditions: 4T1, light or radiation study
[4] = as §1, with “mouse 4T1” for “human Bcap37”; type: toxicity, cell-based; conditions: read-out: Ratio CC50/IC50
4T1 [5] = experiment: Induction of ferroptosis in mouse 4T1 cells assessed as cell viability at 30 nM preincubated for 24 hrs followed by white light irradiation at 20 mW/cm2 and measured after 24 hrs in presence of Fer-1 by MTT assay; type: functional, cell-based; conditions: time 48.0 hrs
[6] = as §1, with “MCF7” for “Bcap37”; type: toxicity, cell-based; conditions: read-out: Ratio CC50/IC50
4T1 [7] = experiment: Upregulation of Hmox1 mRNA expression in mouse 4T1 cells at 10 nM preincubated for 24 hrs followed by […] white light irradiation for 10 mins and measured after 12 hrs by qRT-PCR analysis; type: functional, cell-based; conditions: time 2170.0 min
[8] = Photosensitizing ability of the compound in EtOH assessed as singlet oxygen quantum yield at 100 nM under 520nm 30 mW/cm2 light irradiation by DPBF reagent based analysis; type: functional
4T1 [9] = experiment: Upregulation of Hmox1 mRNA expression in mouse 4T1 cells at 10 nM under light irradiation by KEGG analysis; type: functional, cell-based
[10] = Drug localization in endoplasmic reticulum of mouse 4T1 cells assessed as increase in green fluorescence at 2 uM incubated for 12 hrs by confocal scanning microscopy analysis; type: ADME, subcellular; conditions: 4t1, 12 h
[11] = Phototoxicity in human MCF7 cells assessed as cell viability preincubated for 24 hrs followed by white light irradiation at 20 mW/cm2 for 10 mins and measured after 24 hrs by MTT assay; type: functional, cell-based; conditions: MCF7, light or radiation study
4T1 [12] = experiment: Upregulation of Chac1 mRNA expression in mouse 4T1 cells at 10 nM under light irradiation by KEGG analysis; type: functional, cell-based
4T1 [13] = experiment: Induction of ferroptosis in mouse 4T1 cells assessed as increase in intracellular lipid peroxidation accumulation by measuring increase in green fluorescence at 30 nM preincubated for 24 hrs followed by 30 mW/cm2 green light irradiation for 4 mins by C11 BODIPY 581/591 staining based analysis; type: functional, cell-based; conditions: time 1444.0 min
4T1 [14] = experiment: Induction of ferroptosis in mouse 4T1 cells assessed as cell viability at 30 nM preincubated for 24 hrs followed by white light irradiation at 20 mW/cm2 and measured after 24 hrs in presence of Z-VAD-FMK by MTT assay; type: functional, cell-based; conditions: time 48.0 hrs
[15] = Drug localization in Lipid droplet of mouse 4T1 cells assessed as increase in green fluorescence at 2 uM incubated for 12 hrs by confocal scanning microscopy analysis; type: ADME, subcellular; conditions: 4t1, 12 h
4T1 [16] = experiment: Upregulation of […] mRNA expression in mouse 4T1 cells at 10 nM preincubated for 24 hrs followed by […] white light irradiation for 10 mins and measured after 12 hrs by qRT-PCR analysis; type: functional, cell-based; conditions: time 2170.0 min
MDA-MB-231 [17] = experiment: Upregulation of Hmox1 mRNA expression in human MDA-MB-231 cells at 10 nM preincubated for 24 hrs followed by […] white light irradiation for 10 mins and measured after 12 hrs by qRT-PCR analysis; type: functional, cell-based; conditions: time 2170.0 min
[18] = Potency index, ratio of IC50 for Chlorin e6 to IC50 for test compound for phototoxicity in human MDA-MB-231 cells assessed as cell viability preincubated for 24 hrs followed by white light irradiation at 20 mW/cm2 for 10 mins and measured after 24 hrs by MTT assay; type: functional; conditions: time 48 hrs
4T1 [19] = experiment: Induction of ferroptosis in mouse 4T1 cells assessed as cell viability at 30 nM preincubated for 24 hrs followed by white light irradiation at 20 mW/cm2 and measured after 24 hrs in presence of 3-MA by MTT assay; type: functional, cell-based; conditions: time 48.0 hrs
4T1 [20] = experiment: Induction of ferroptosis in mouse 4T1 cells assessed as decrease in intracellular GSH level at 15 nM preincubated in dark condition for 24 hrs followed by 20mW/cm2 white light irradiation for 10 mins and measured after 12 hrs by colorimetric assay; type: functional, cell-based; conditions: time 2170.0 min
4T1 [21] = experiment: Upregulation of Chac1 mRNA expression in mouse 4T1 cells at 10 nM preincubated for 24 hrs followed by […] white light irradiation for 10 mins and measured after 12 hrs by qRT-PCR analysis; type: functional, cell-based; conditions: time 2170.0 min
4T1 [22] = experiment: Induction of ferroptosis in mouse 4T1 cells assessed as increase in intracellular lipid peroxidation accumulation by measuring increase in green fluorescence at 30 nM incubated under dark condition for 24 hrs by C11 BODIPY 581/591 staining based analysis; type: functional, cell-based
[23] = Phototoxicity in human Bcap37 cells assessed as cell viability preincubated for 24 hrs followed by white light irradiation at 20 mW/cm2 for 10 mins and measured after 24 hrs by MTT assay; type: functional, cell-based; conditions: Bcap37, light or radiation study
[24] = Photosensitizing ability of the compound in NaOH assessed as fluorescence quantum yield; type: functional
4T1 [25] = experiment: (§2) Induction of intracellular ROS generation in mouse 4T1 cells assessed as increase in green fluorescence intensity at 5 to 60 nM incubated in dark for 24 hrs followed by compound removal and measured after 5 mins under 20 mW/cm2H2 white light irradiation by H2-DCFDA staining based fluorescence assay; type: functional, cell-based; conditions: dose 5-60 nM
[26] = as §1, with “MDA-MB-231” for “Bcap37”; type: toxicity, cell-based; conditions: read-out: Ratio CC50/IC50
4T1 [27] = experiment: as §2, with “irradiation in presence of NaN3” for “irradiation”; type: functional, cell-based; conditions: dose 5-60 nM
4T1 [28] = experiment: Induction of ferroptosis in mouse 4T1 cells assessed as increase in MDA level at 15 nM preincubated in dark condition for 24 hrs followed by 20mW/cm2 white light irradiation for 10 mins and measured after 6 hrs by colorimetric assay; type: functional, cell-based; conditions: time 1810.0 min
[29] = Drug localization in Lipid droplet of mouse 4T1 cells assessed as increase in green fluorescence by measuring pearson correlation coefficient at 2 uM incubated for 12 hrs by confocal scanning microscopy analysis; type: ADME, subcellular; conditions: 4t1, 12 h
4T1 [30] = experiment: Induction of ferroptosis in mouse 4T1 cells assessed as cell viability at 30 nM preincubated for 24 hrs followed by white light irradiation at 20 mW/cm2 and measured after 24 hrs in presence of Nec-1 by MTT assay; type: functional, cell-based; conditions: time 48.0 hrs
[31] = Darktoxicity in human Bcap37 cells assessed as cell viability preincubated for 24 hrs followed by incubation under dark condition for 24 hrs by MTT assay; type: toxicity, cell-based; conditions: time 48 hrs
[32] = Darktoxicity in human MDA-MB-231 cells assessed as cell viability preincubated for 24 hrs followed by incubation under dark condition for 24 hrs by MTT assay; type: toxicity, cell-based; conditions: time 48 hrs
[33] = Darktoxicity in human MCF7 cells assessed as cell viability preincubated for 24 hrs followed by incubation under dark condition for 24 hrs by MTT assay; type: toxicity, cell-based; conditions: time 48 hrs
4T1 [34] = experiment: Upregulation of Acsl4 mRNA expression in mouse 4T1 cells at 10 nM under light irradiation by KEGG analysis; type: functional, cell-based
MDA-MB-231 [35] = experiment: Upregulation of Chac1 mRNA expression in human MDA-MB-231 cells at 10 nM preincubated for 24 hrs followed by […] white light irradiation for 10 mins and measured after 12 hrs by qRT-PCR analysis; type: functional, cell-based; conditions: time 2170.0 min
[36] = Phototoxicity in human MDA-MB-231 cells assessed as cell viability preincubated for 24 hrs followed by white light irradiation at 20 mW/cm2 for 10 mins and measured after 24 hrs by MTT assay; type: functional, cell-based; conditions: MDA-MB-231, light or radiation study

- Drug uptake [10]: Active
- Drug uptake [15]: Active
- Activity [29]: 0.84
SMILES: CC1=C(I)C(C)=[N+]2C1=C(c1nccc3c1[nH]c1ccccc13)c1c(C)c(I)c(C)n1[B-]2(F)F
- selectivity ratio [1]: > 3880
- Activity (MDA-MB-231 [2]): Active
- IC50 [3]: 23 nM
- selectivity ratio [4]: 18
- Activity (4T1 [5]): Active
- selectivity ratio [6]: > 2430
- Activity (4T1 [7]): Active
- Activity [8]: 0.73
- Activity (4T1 [9]): Active
- IC50 [11]: 41 nM
- Activity (4T1 [12]): Active
- Activity (4T1 [13]): Active
- Activity (4T1 [14]): inactive
- Activity (4T1 [16]): Active
- Activity (MDA-MB-231 [17]): Active
- Ratio IC50 [18]: 38
- Activity (4T1 [19]): inactive
- Activity (4T1 [20]): Active
- Activity (4T1 [21]): Active
- Activity (4T1 [22]): inactive
- IC50 [23]: 26 nM
- Activity [24]: 0.19
- Activity (4T1 [25]): Active
- selectivity ratio [26]: 835
- Activity (4T1 [27]): inactive
- Activity (4T1 [28]): Active
- Activity (4T1 [30]): inactive
- CC50 at 24 h [31]: > 100000 nM
- CC50 at 24 h [32]: 27600 nM
- CC50 at 24 h [33]: > 100000 nM
- Activity (4T1 [34]): Active
- Activity (MDA-MB-231 [35]): Active
- IC50 [36]: 33 nM
